Laboratory results taken from patent US11780822B2, “HDAC inhibitor solid state forms” (Viracta Subsidiary, Inc., priority 2019, dated 2023).
Entries after “also recorded” stand apart in the source; their conditions may differ. Values belong to the molecule of their own block, whether it stands above or below them.

Legend:
Assay type in all cases: physicochemical
[1] = Competitive suspension equilibrations of Form A + Form B composites; conditions: stirred overnight
Method: Objective: Determine the fates of the Form A and Form B when equilibrated in ethanol under anhydrous and aqueous conditions at 20° C. and 40° C.
Procedure: Composites, prepared from equimolar amounts of Form A and Form B were charged to separate vials and ethanol (13 vol) or ethanol/water (10/3 v/v, 13 vol) were added. The two pairs of mixtures were stirred at 20° C. or 40° C. overnight.

[2] = Effect of elevated humidity, desiccator analysis at equilibrium humidity; conditions: for Δwt. Percent: RH 75-80%; for Output Form designation (XRPD): after exposure to 75 to 80% RH at 18 to 23° C. for 72 h
Method: The effect of elevated humidity (75 to 80% RH at 18 to 23° C.) on the thermally dehydrated Form A residue from the preceding experiment, was examined via conventional desiccator analysis at equilibrium humidity. Compound 1 Form A (ca. 16 mg) was heated at a rate of +10° C./min from 20 to 160° C. to include the first endothermic event and exclude the second event (see FIG. 2). The content of the spent crucible was exposed to 75 to 80% RH (relative humidity) at 18 to 23° C. for 72 h. The corresponding weight changes were recorded and the internal conditions of the humidity enclosures were monitored. The absorbent increased in weight (refer to Table 4), but this was not accompanied by a significant change in the diffraction pattern, or dehydration event by DSC.

[3] = Thermal investigations (heating in DSC, residue analysed by XRPD or 1H NMR)
Method: A Mettler Toledo DSC 821 instrument was used for the thermal analysis operating with STARe™ software. The analysis was conducted in […], open aluminum pans, under nitrogen and sample sizes ranged from 1 to 10 mg. Typical analysis method was 20 to 250 at 10° C./minute.
Procedure: First experiment-A sample of compound 1 Form A containing 5.1% w/w water and 0.2% w/w ethanol (ca. 16 mg) was heated at a rate of +10° C./min from 20 to 160° C. to include the first endothermic event and exclude the second event (refer to FIG. 2).
(§1) Procedure: First event: A sample of compound 1 Form C (ca. 7 mg) was heated at a rate of +10° C./min from 20 to 120° C. to include the first endothermic event (refer to FIG. 9). The content of the spent crucible was expressed, the residue was analyzed by XRPD and the diffraction pattern was compared to the input diffraction pattern.
as §1, with “Third” for “Procedure: First”, “5” for “7”, “150°” for “120°”, “multiple thermal events” for “first endothermic event”
Procedure: First event: a sample of compound 1 Form E (ca. 8 mg) was heated at a rate of +10° C./min from 20 to 160° C. to include the first endothermic event and exclude the second event (refer to FIG. 11). The content of the spent crucible was expressed, the residue was analyzed by XRPD and the diffraction pattern was compared to the input diffraction pattern (see FIG. 12).

[4] = Dynamic Vapor Sorption (DVS) analyses; conditions: for Hygroscopicity by DVS: 25° C., RH 0-90-0%; for Weight lost during the pre-equilibration: DVS at 25° C., drying 0% RH for 120 min
Method: Use the following parameters: • Equilibrium: dm/dt: 0.002%/min. (for min: 10 min and max: 180 min). • Drying: 0% RH for 120 min • RH (%) measurement step: 5% • RH (%) measurement step scope: 0-90-0% The criteria for hygroscopicity evaluation are listed in below: DVS analysis was performed on compound 1 Form A and compound 1 Form B to determine the degree of hygroscopicity. The results are provided in FIGS. 13A, FIG. 13B, FIG. 14A and FIG. 14B.

[5] = Anhydrous suspension equilibrations of Form A at 20° C. and 40° C.; conditions: stirred 7 to 10 days at 40° C.
Method: Objective: Examine the effect of suspension equilibration of compound 1 under anhydrous conditions at 20° C. and 40° C. and determine the physical form of the products.
Procedure: Compound 1 (ca 50 mg, 1.0 wt) and the appropriate solvent (1000 μl, 20 vol) were charged to separate vessels and two parallel banks of experiments were stirred for 7 to 10 days at 20° C. and 40° C. After this time the products were cooled, isolated by filtration, washed with recycled maturation solvent, dried under reduced pressure at 20° C. and analyzed by XRPD for evidence of alternative crystalline forms.

[6] = Suspension equilibration of single Form A and B under production conditions; conditions: 40° C., stirred overnight
Method: Objective: Determine the fates of single Form A and B when equilibrated in ethanol under anhydrous and aqueous conditions at 40° C.
Procedure: Form B and Form A were charged to separate vials. Ethanol/water (10/3 v/v, 13 vol) and ethanol (13 vol) were added, respectively. The mixtures were stirred at 20° C. or 40° C. overnight.

[7] = heated at +10° C./min from 20 to 160° C.

Output form (XRPD) ([1]; Ethanol, 20° C.): B (Major | Output form (XRPD) ([1]; Ethanol, 20° C., listed as composite Form A+B): near complete conversion into Form B | Output form (XRPD) ([1]; Ethanol, 40° C.): Form B | Output form (XRPD) ([1]; Ethanol, 40° C., listed as composite Form A+B): complete turnover into single Form B | Output form (XRPD) ([1]; Ethanol/water (10/3 v/v), 20° C.): Form A | Output form (XRPD) ([1]; Ethanol/water (10/3 v/v), 20° C., listed as composite Form A+B): single Form A | Output form (XRPD) ([1]; Ethanol/water (10/3 v/v), 40° C.): Form A | Output form (XRPD) ([1]; Ethanol/water (10/3 v/v), 40° C., listed as composite Form A+B): single Form A
SMILES: O=C(NO)c1cnc(N2C[C@@H]3[C@H](C2)[C@H]3NCc2ccc3cc(F)ccc3n2)nc1 [Form A + Form B (1/1 w/w)]

Δwt. Percent ([2]; 0 h @ 18-23° C.): 0.0% w/w | Δwt. Percent ([2]; 1 h @ 18-23° C.): 14.6% w/w | Δwt. Percent ([2]; 24 hr @ 18-23° C.): 13.2% w/w | Δwt. Percent ([2]; 72 hr @ 18-23° C.): 14.6% w/w | Output Form designation (XRPD) [2]: Isostructural | Output Form designation (XRPD) ([2]; listed as Form A dehydrate): did not revert back to Form A
SMILES: O=C(NO)c1cnc(N2C[C@@H]3[C@H](C2)[C@H]3NCc2ccc3cc(F)ccc3n2)nc1 [Form A after heating up to 160° C.]

Form of residue after heating (XRPD) [3, 7]: consistent with Form B | State after heating (1H NMR) ([3]; heated at +10° C./min from 20 to 230° C., cooled): extensive degradation | Large exothermic event (DSC, confirmed by 1H NMR) ([3]; post heating to 200° C.): consistent with degradation | Weight lost during the pre-equilibration [4]: ~0.25 % w/w | Output form @ 40° C. (XRPD) ([5]; 1,4-dioxane (20 vol)): A + B | Output form @ 40° C. (XRPD) ([5]; 2-Propanol (20 vol)): A + B | Output form @ 40° C. (XRPD) ([5]; Acetone (20 vol)): A + B | Output form @ 40° C. (XRPD) ([5]; Anisole (20 vol)): A + B | Output form @ 40° C. (XRPD) ([5]; Butanol (20 vol)): A + B | Output form @ 40° C. (XRPD) ([5]; Chlorobenzene (20 vol)): A + B | Output form @ 40° C. (XRPD) ([5]; Cumene (20 vol)): A + B | Output form @ 40° C. (XRPD) ([5]; Dichloromethane (20 vol)): A + B | Output form @ 40° C. (XRPD) ([5]; Ethyl acetate (20 vol)): A + B | Output form @ 40° C. (XRPD) ([5]; Ethyl ether (20 vol)): A + B | Output form @ 40° C. (XRPD) ([5]; Heptane (20 vol)): A + B | Output form @ 40° C. (XRPD) ([5]; Isopropyl acetate (20 vol)): A + B | Output form @ 40° C. (XRPD) ([5]; Methyl acetate (20 vol)): A + B | Output form @ 40° C. (XRPD) ([5]; Nitromethane (20 vol)): A + B | Output form @ 40° C. (XRPD) ([5]; Propionitrile (20 vol)): A + B | Output form @ 40° C. (XRPD) ([5]; Tetrahydrofuran (20 vol)): A + B | Output form @ 40° C. (XRPD) ([5]; Trifluorotoluene (20 vol)): A + B | Output form @ 40° C. (XRPD) ([5]; tert-Butylmethyl ether (20 vol)): A + B | Output form (XRPD) ([6]; Ethanol): converted to Form B | Output form (XRPD) ([6]; Ethanol, listed as Form A (A0822-170-AD1)): Form B
SMILES: O=C(NO)c1cnc(N2C[C@@H]3[C@H](C2)[C@H]3NCc2ccc3cc(F)ccc3n2)nc1 [Form A, N-hydroxy 2-{6-[(6-fluoro-quinolin-2-ylmethyl)-amino]-3-aza-bicyclo[3.1.0]hex-3-yl}pyrimidine-5-carboxamide]
Hygroscopicity by DVS [4]: neither being hygroscopic; also recorded: not hygroscopic

Hygroscopicity by DVS [4]: neither being hygroscopic | Form conversion at high water activity ([4]; 40° C., high water activity, stated among the DVS observations): promoted the conversion into Form A | Weight lost during the pre-equilibration [4]: 0.03 % w/w | Output form (XRPD) ([6]; Ethanol/water (10/3 v/v)): mixture Form A and B | Output form (XRPD) ([6]; Ethanol/water (10/3 v/v), listed as Form B (A0822-170-AC1)): A + B
SMILES: O=C(NO)c1cnc(N2C[C@@H]3[C@H](C2)[C@H]3NCc2ccc3cc(F)ccc3n2)nc1 [Form B, N-hydroxy 2-{6-[(6-fluoro-quinolin-2-ylmethyl)-amino]-3-aza-bicyclo[3.1.0]hex-3-yl}pyrimidine-5-carboxamide]

Form of residue after heating (XRPD) ([3]; heated at +10° C./min from 20 to 150° C.): converted into isostructural Form B
SMILES: O=C(NO)c1cnc(N2C[C@@H]3[C@H](C2)[C@H]3NCc2ccc3cc(F)ccc3n2)nc1 [Form C, N-hydroxy 2-{6-[(6-fluoro-quinolin-2-ylmethyl)-amino]-3-aza-bicyclo[3.1.0]hex-3-yl}pyrimidine-5-carboxamide]
Form of residue after heating (XRPD) ([3]; heated at +10° C./min from 20 to 120° C.): consistent with an isomorphic desolvate/dehydrate

Form of residue after heating (XRPD) [3, 7]: consistent with Form B
SMILES: O=C(NO)c1cnc(N2C[C@@H]3[C@H](C2)[C@H]3NCc2ccc3cc(F)ccc3n2)nc1 [Form E, N-hydroxy 2-{6-[(6-fluoro-quinolin-2-ylmethyl)-amino]-3-aza-bicyclo[3.1.0]hex-3-yl}pyrimidine-5-carboxamide]
